Assay results from PubChem BioAssay (NCI).
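Test compounds were applied to cells in 96-well plates for 48 hours at 5 doses. At the GI50, growth is halved. At the TGI there is no net growth.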

Key:
Assay in all cases: NCI anticancer screen, dose series, 48 h
CCRF-CEM leukemia = tested on: CCRF-CEM leukemia
UO-31 renal = tested on: UO-31 renal
OVCAR-5 ovarian = tested on: OVCAR-5 ovarian
NCI-H522 lung = tested on: NCI-H522 lung
SK-OV-3 ovarian = tested on: SK-OV-3 ovarian
UACC-257 melanoma = tested on: UACC-257 melanoma
786-0 renal = tested on: 786-0 renal
SR leukemia = tested on: SR leukemia
HOP-92 NSCLC = tested on: HOP-92 NSCLC
BT-549 breast = tested on: BT-549 breast
MDA-MB-435 = tested on: MDA-MB-435

| SMILES | TGI (CCRF-CEM leukemia) [µM] | TGI (UO-31 renal) [µM] | TGI (OVCAR-5 ovarian) [µM] | TGI (NCI-H522 lung) [µM] | TGI (SK-OV-3 ovarian) [µM] | TGI (UACC-257 melanoma) [µM] | TGI (786-0 renal) [µM] | TGI (SR leukemia) [µM] | TGI (HOP-92 NSCLC) [µM] | TGI (BT-549 breast) [µM] | TGI (MDA-MB-435) [µM] | GI50 (SR leukemia) [µM] | GI50 (UO-31 renal) [µM] | GI50 (OVCAR-5 ovarian) [µM] | GI50 (NCI-H522 lung) [µM] |
| --- | --- | --- | --- | --- | --- | --- | --- | --- | --- | --- | --- | --- | --- | --- | --- |
| N#CN=C(N(Cc1ccccc1)Cc1ccccc1)N(Cc1ccccc1)Cc1ccccc1 | > 100 | > 100 | > 100 | > 100 | > 100 | > 100 | – | – | – | – | – | – | – | – | – |
| C[C@]12CC[C@H](O)CC1=CC[C@@H]1C2CC[C@]2(C)C(=O)N(N)C(=O)CC12 (stereo partly specified) | > 100 | > 100 | > 100 | > 100 | > 100 | > 100 | > 100 | > 100 | > 100 | – | – | – | – | – | – |
| CNC(=O)OCC1=C(COC(=O)NC)C(C)N(c2ccc(OC)cc2)C1 (stereo unspecified) | > 100 | > 100 | > 100 | – | > 100 | > 100 | > 100 | 93.8 | > 100 | > 100 | > 100 | – | – | – | – |
| CC(N)Cc1ccc(C(=O)Cl)cc1 (stereo unspecified) | > 100 | – | – | > 100 | > 100 | > 100 | > 100 | – | – | – | – | – | – | – | – |
| COc1cc([C@@H]2OCC3C(c4ccc5c(c4)OCO5)OCC32)cc(OC)c1OC (stereo partly specified) | > 100 | > 100 | > 100 | > 100 | > 100 | – | > 100 | > 100 | 60.9 | – | – | – | – | – | – |
| O=C1c2ccccc2C2C1N2C(=O)C(F)(F)F (stereo unspecified) | 70.9 | > 100 | > 100 | > 100 | > 100 | > 100 | > 100 | > 100 | > 100 | – | – | – | – | – | – |
| CNC(=O)C(C)C1CCC2(C)C=CC(=O)C(C)=C2C1O (stereo unspecified) | > 100 | > 68.3 | > 100 | > 100 | > 100 | > 100 | – | – | > 100 | – | – | – | – | – | – |
| CCOC(=O)N1CCC2(CC1)C[C@](C)(C(C)=O)C(C)O2 (stereo partly specified) | – | > 100 | > 100 | > 100 | > 100 | > 100 | > 100 | > 100 | > 100 | – | > 100 | – | – | – | – |
| CNS(=O)(=O)NNS(=O)(=O)c1ccc2ccccc2c1 | > 100 | > 100 | > 100 | > 100 | > 100 | > 100 | > 100 | > 100 | – | – | – | – | – | – | – |
| CC(=O)Nc1ccc(-c2nnc(SCC(=O)Nc3ccc([N+](=O)[O-])cc3)o2)cc1 | > 100 | 34.6 | 36 | 20.7 | 35.9 | 24.7 | 23.7 | > 100 | 37.7 | – | – | – | – | – | – |
| O=S1(=O)NC(=NCc2c[nH]c3ccccc23)N(c2ccccc2)c2ccncc21 | > 100 | > 100 | > 100 | 92.7 | > 100 | > 100 | > 100 | – | > 100 | > 100 | > 100 | – | – | – | – |
| O=C(Nc1ccc(C2=NCCN2)cc1)c1cncc(C(=O)Nc2ccc(C3=NCCN3)cc2)c1 | > 100 | > 100 | > 100 | > 100 | > 100 | > 100 | – | – | > 100 | – | – | – | – | – | – |
| O=C1CCC23CC(C=CC=C12)n1c(=O)n(-c2ccccc2)c(=O)n13 (stereo unspecified) | > 100 | > 100 | > 100 | > 100 | > 100 | > 100 | – | – | > 100 | – | – | – | – | – | – |
| CCN(CC)CCC(=O)Nc1ccc2c(c1)C(=O)c1ccc(NC(=O)CCN(CC)CC)cc1C2=O | 18.5 | > 100 | 25.1 | 23.5 | 21.7 | 29.7 | 8.42 | 14.5 | 30 | – | – | – | – | – | – |
| N.N.N.N.O=[N+]([O-])[O-].[Co+3].[N-]=[N+]=[N-].[N-]=[N+]=[N-] | > 100 | > 100 | > 100 | > 100 | > 100 | > 100 | > 100 | – | > 100 | – | – | – | – | – | – |
| CC(=O)NC1=C(NCCC(C)C)C(=O)c2ccccc2C1=O | > 50 | > 50 | – | > 50 | > 50 | > 50 | > 50 | > 50 | > 50 | – | – | – | – | – | – |
| O=C([O-])CC(=O)[O-].O=C([O-])CC(=O)[O-].[K+].[Pd+2] | – | > 100 | > 100 | > 100 | – | – | – | > 100 | – | – | – | > 100 | > 100 | > 100 | > 100 |
| Cc1cccc2c(=O)cc(-c3ccccc3)[nH]c12 | > 100 | > 100 | – | – | – | > 100 | > 100 | > 100 | – | – | – | – | – | – | – |
| COc1cc([C@@H]2c3cc4c(cc3[C@@H](Nc3ccc([N+](=O)[O-])cc3C(=O)c3ccccc3)[C@H]3COC(=O)[C@H]23)OCO4)cc(OC)c1OC | > 100 | – | > 100 | > 51 | > 100 | > 100 | > 100 | > 100 | > 100 | – | 0.319 | – | – | – | – |
